Measurements as given in patent US20260356804A1, “SODIUM CHANNEL BLOCKING COMPOUNDS, DERIVATIVES THEREOF, AND METHODS OF THEIR USE” (LATIGO BIOTHERAPEUTICS, INC., priority 2022, published 2026).
pIC50: −log10 of the molar value. Where two headings read alike, the source gives them in different places.

Columns and labels:
human Nav1.8/β1 = molecular target: T1, human Nav1.8/β1 (Homo sapiens, UniProt Q9Y5Y9); test: Compound Profiling Human NaV1.8/β1 Cell Line—Sophion QPatch II Assay (automated patch clamp, stably transfected HEK293 cells); assay type: cell-based
T1 construct: host or cells: HEK293
Method: Compounds were tested on recombinant human Nav1.8/β1 stably transfected HEK293 (Eurofins, CYL3025, St. Charles, MO) cells using the QPatch II system (Sophion Bioscience A/S, Ballerup—Denmark), an automated patch clamp device. Cells were cultured at 37° C./5% CO2 in DMEM/F-12 supplemented with 10% fetal bovine serum, 1× Non-Essential Amino Acids, and selection antibiotics (0.625 μg/mL Puromycin, 400 μg/mL Geneticin, and 100 μg/mL Hygromycin). One or two days prior to recording, cells were moved to a lower temperature 30° C./5% CO2 incubator to increase surface expression of the channels. On the day of the recordings, cells in culture dishes were washed twice with Ca^2+—Mg^2+ free DPBS and treated with Detachin (Genlantis, San Diego) for 3 minutes and then resuspended in Serum Free Medium (EX-CELL® ACF CHO Medium for Cell Culture (Sigma-Aldrich) supplemented with 0.04 mg/mL soybean trypsin Inhibitor and 25 mM HEPES (all components supplied by Sigma-Aldrich, St. Louis, MO) and allowed to recover for a minimum of 20 minutes in the onboard QStirrer. All experiments were performed at ambient temperature. Intracellular solution contained (mM): CsCl, 50; CsF, 90; MgCl2, 2; EGTA, 5; HEPES, 10; pH adjusted to 7.2 with CsOH. Extracellular solution contained (mM): NaCl, 137; KCl, 4; CaCl2), 3.8; MgCl2, 1; HEPES, 10; Glucose, 10; pH adjusted to 7.4 with NaOH. [LEFT OUT].
Compounds were tested in an interleaved manner across two cohorts of wells to develop an aggregate 8-point concentration response curve. Final concentrations include 0.1% DMSO and 0.03% pluronic Acid. In general, the concentration range spans a range from 0.01-300 nM. Compounds were diluted 1:10 with extracellular solution within their respective cohort. DMSO (0.1% by volume) served as a vehicle control to ascertain assay performance.
(§1) Whole cell patch clamp recordings were conducted according to Sophion standard procedure for QPatch II®. Cells were held at a holding potential of −120 mV. A depolarizing step to 10 mV for 30 ms was applied to elicit inward Na^+ currents. Inter-sweep interval was 15 sec. Following establishment of the whole-cell configuration in extracellular solution, cells were washed twice in extracellular solution containing 0.1% DMSO and 0.03% pluronic acid to stabilize the baseline current. Compounds were then applied by the QPatch II system into each well in an ascending manner within cohort and the current was recorded for five minutes for each concentration. Percent of current remaining was determined by taking the average of the last 5 sweeps within each concentration and normalizing to the latest pre-compound saline period. The potency (IC50) values of the compounds were only assessed against resting state block. Wells whose initial sodium current magnitude were below 2 nA or whole cell resistance fell below 100 MΩ were excluded from analysis.
as §1, with “MO” for “MΩ”, “analysis. […]” for “analysis.”

human Nav1.8/b3 = molecular target: T2, human Nav1.8/b3 (Homo sapiens, UniProt Q9Y5Y9); test: Compound Profiling Human NaV1.8/β3 Cell Line—SyncroPatch384PE Assay (automated patch clamp, stably transfected CHO cells); assay type: cell-based; conditions: Nav1.8/b3 CHO cells, third set of compounds
T2 construct: expressed in transfected cells; host or cells: CHO

[1] = P1, resting state block, Nav1.8/β1 HEK293 cells, holding potential −120 mV, first set of compounds, read-out: P1 (IC50, resting state block)
[2] = P1 (IC50, resting state block), P1 measurement, resting state block, holding potential −120 mV
[3] = P2 (IC50, inactivated state block), P2 measurement, inactivated state block, inactivation step −35 mV 10 sec

T1 sequence (Q9Y5Y9 whole entry): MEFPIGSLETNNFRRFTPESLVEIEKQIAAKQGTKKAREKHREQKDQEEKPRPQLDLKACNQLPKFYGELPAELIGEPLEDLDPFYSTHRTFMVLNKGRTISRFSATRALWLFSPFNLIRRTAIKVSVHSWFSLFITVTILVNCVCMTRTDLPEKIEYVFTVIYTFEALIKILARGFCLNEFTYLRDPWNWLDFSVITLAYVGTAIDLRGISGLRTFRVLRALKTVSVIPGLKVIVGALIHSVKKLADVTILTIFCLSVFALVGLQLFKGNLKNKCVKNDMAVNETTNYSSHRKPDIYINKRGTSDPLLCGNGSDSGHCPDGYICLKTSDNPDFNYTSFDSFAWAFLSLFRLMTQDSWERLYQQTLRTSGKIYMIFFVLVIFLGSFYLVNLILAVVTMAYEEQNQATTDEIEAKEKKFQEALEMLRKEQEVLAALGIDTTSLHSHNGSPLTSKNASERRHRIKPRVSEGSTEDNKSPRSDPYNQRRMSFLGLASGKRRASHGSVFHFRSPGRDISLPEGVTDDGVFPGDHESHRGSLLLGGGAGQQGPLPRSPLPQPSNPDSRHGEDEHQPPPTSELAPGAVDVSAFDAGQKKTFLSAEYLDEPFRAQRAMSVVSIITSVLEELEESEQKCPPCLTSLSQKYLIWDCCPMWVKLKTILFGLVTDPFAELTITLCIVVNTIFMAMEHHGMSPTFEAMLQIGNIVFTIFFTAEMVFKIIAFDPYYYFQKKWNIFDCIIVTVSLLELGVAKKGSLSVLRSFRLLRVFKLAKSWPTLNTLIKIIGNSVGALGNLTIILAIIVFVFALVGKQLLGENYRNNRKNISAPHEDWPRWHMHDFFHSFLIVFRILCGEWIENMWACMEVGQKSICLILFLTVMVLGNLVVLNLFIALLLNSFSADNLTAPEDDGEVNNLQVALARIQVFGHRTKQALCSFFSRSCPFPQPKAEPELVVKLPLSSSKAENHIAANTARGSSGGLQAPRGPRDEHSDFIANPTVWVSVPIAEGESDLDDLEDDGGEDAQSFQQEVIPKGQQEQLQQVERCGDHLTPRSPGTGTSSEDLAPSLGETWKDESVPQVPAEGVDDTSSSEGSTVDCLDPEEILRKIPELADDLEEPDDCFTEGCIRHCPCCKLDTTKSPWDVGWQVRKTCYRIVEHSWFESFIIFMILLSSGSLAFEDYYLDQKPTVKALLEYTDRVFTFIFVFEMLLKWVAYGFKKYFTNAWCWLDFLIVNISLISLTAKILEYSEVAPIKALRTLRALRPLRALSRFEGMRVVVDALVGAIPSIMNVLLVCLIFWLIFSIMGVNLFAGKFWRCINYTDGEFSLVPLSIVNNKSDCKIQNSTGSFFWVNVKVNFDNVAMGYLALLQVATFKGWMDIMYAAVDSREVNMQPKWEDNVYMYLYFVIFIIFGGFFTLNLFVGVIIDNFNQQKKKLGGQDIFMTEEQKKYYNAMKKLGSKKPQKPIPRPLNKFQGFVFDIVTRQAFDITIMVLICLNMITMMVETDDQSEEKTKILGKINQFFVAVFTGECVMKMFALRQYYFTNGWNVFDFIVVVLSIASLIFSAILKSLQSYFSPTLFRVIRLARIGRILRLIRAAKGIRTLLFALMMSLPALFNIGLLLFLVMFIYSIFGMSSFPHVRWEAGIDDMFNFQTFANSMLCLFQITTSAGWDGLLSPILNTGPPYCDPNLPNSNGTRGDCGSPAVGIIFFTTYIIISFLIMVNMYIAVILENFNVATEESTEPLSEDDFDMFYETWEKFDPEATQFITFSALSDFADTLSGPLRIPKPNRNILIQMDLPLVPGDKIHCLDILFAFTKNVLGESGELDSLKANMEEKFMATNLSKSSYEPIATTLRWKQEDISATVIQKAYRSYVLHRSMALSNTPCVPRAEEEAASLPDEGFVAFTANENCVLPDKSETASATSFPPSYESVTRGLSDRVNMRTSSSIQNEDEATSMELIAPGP
T1 sequence (Q07699 19-218 partner): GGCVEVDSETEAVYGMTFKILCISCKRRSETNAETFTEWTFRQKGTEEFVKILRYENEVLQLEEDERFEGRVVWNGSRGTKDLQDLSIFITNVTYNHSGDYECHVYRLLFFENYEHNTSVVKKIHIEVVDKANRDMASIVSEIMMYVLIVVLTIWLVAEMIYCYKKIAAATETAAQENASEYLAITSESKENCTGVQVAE
T2 sequence (Q9Y5Y9 whole entry): as the sequence (Q9Y5Y9 whole entry) above
T2 sequence (Q9NY72 23-215 partner): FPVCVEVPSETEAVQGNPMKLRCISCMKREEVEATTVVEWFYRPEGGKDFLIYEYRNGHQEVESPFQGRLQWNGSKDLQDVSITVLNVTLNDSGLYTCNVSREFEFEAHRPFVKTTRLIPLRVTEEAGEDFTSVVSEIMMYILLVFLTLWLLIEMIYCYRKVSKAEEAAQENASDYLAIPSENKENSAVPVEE

pIC50 (human Nav1.8/β1) | other results | Compound
6.70 to 7.00 | – | Cc1nc(F)ccc1Oc1cc(C(F)(F)F)ccc1C(=O)Nc1ccc(F)c([S@](C)(=N)=O)c1 [Example 30A]
7.00 to 7.30 | – | Cc1nc(F)ccc1Oc1ncc(C(F)(F)F)c(C)c1C(=O)Nc1cccc([S@@](=N)(=O)CCO)c1 [Example 66C]
7.00 to 7.30 | – | CC[S@@](=N)(=O)c1cccc(NC(=O)c2c(Oc3ccc(F)nc3C)ncc(C(F)(F)F)c2C)c1 [Example 82C]
– | pIC50 (human Nav1.8/β1; [1]): 7.30 to 8.30 | COc1cc(C#N)ccc1Oc1cc(C(F)(F)F)c(Cl)cc1C(=O)Nc1ccnc([S@@](C)(=N)=O)c1 [Example 15A]
7.30 to 8.30 | – | Cc1nc(F)ccc1Oc1ccc(C(F)(F)F)c(Cl)c1C(=O)Nc1ccnc([S@](C)(=N)=O)c1 [Example 32A]
6.70 to 7.00 | – | Cc1nc(F)ccc1Oc1ncc(C(F)(F)F)c(C)c1C(=O)Nc1cccc([S@@](=N)(=O)CCCO)c1 [Example 68C]
– | pIC50 (human Nav1.8/β1; P1, resting state block, Nav1.8/β1 HEK293 cells, holding potential −120 mV, third set of compounds, read-out: P1 (IC50, resting state block)): 7.30 to 8.30 | CNCC[S@@](=N)(=O)c1cccc(NC(=O)c2c(Oc3ccc(F)nc3C)ncc(C(F)(F)F)c2C)c1 [Example 64C]
7.30 to 8.30 | – | COc1cc(C#N)ccc1Oc1cc(C(F)(F)F)c(Cl)cc1C(=O)Nc1ccnc([S@](C)(=N)=O)c1 [Example 12A, (R)-5-chloro-2-(4-cyano-2-methoxyphenoxy)-N-(2-(S-methylsulfonimidoyl)pyridin-4-yl)-4-(trifluoromethyl)benzamide]
7.30 to 8.30 | – | Cc1nc(F)ccc1Oc1ncc(C(F)(F)F)c(C)c1C(=O)Nc1cccc([S@]2(=O)=NCCC2)c1 [Example 79C]
7.30 to 8.30 | – | CNCCCS(=N)(=O)c1cccc(NC(=O)c2c(Oc3ccc(F)nc3C)ncc(C(F)(F)F)c2C)c1 (centres unmarked) [Example 74C]
7.30 to 8.30 | – | Cc1nc(F)ccc1Oc1ncc(C(F)(F)F)c(C)c1C(=O)Nc1cccc([S@@](=N)(=O)CCN(C)C)c1 [Example 75C]
7.30 to 8.30 | – | COc1cc(C#N)ccc1Oc1cc(C(F)(F)F)c(Cl)cc1C(=O)Nc1ccc(F)c([S@](C)(=N)=O)c1 [Example 8A, (R)-5-chloro-2-(4-cyano-2-methoxyphenoxy)-N-(4-fluoro-3-(S-methylsulfonimidoyl)phenyl)-4-(trifluoromethyl)benzamide]
< 6.70 | – | Cc1nc(F)ccc1Oc1ncc(C(F)(F)F)c(C)c1C(=O)Nc1cc(S(C)(=N)=O)ccn1 (centres unmarked) [Example 63C]
7.30 to 8.30 | – | CCC(N)(CC)CCS(=N)(=O)c1cccc(NC(=O)c2c(Oc3ccc(F)nc3C)ncc(C(F)(F)F)c2C)c1 (centres unmarked) [Example 41C, N-(3-(3-amino-3-ethylpentylsulfonimidoyl)phenyl)-2-((6-fluoro-2-methylpyridin-3-yl)oxy)-4-methyl-5-(trifluoromethyl)nicotinamide]
7.30 to 8.30 | – | Cc1cc(F)ccc1Oc1ncc(C(F)(F)F)c(C)c1C(=O)Nc1cccc(S(=N)(=O)CCCN(C)C)c1 (centres unmarked) [Example 55C]
6.70 to 7.00 | – | Cc1nc(F)ccc1Oc1cc(C(F)(F)F)ccc1C(=O)Nc1cccc([S@@](C)(=N)=O)c1 [Example 31A]
< 6.70 | – | Cc1nc(F)ccc1Oc1nc(C(F)(F)F)c(Cl)cc1C(=O)Nc1ccnc([S@](C)(=N)=O)c1 [Example 81C]
6.70 to 7.00 | – | Cc1cc(F)ncc1Oc1cc(C(F)(F)F)c(Cl)cc1C(=O)Nc1ccc(F)c([S@](C)(=N)=O)c1 [Example 24A]
7.30 to 8.30 | – | Cc1nc(F)ccc1Oc1ncc(C(F)(F)F)c(C)c1C(=O)Nc1cccc([S@@](=N)(=O)CCCN(C)C)c1 [Example 72C]

pIC50 (human Nav1.8/β1) | other results | Compound
7.30 to 8.30 | – | CNCCCS(=O)(=O)c1cccc(NC(=O)c2c(Oc3ccc(F)nc3C)ncc(C(F)(F)F)c2C)c1 [Example 71C]
7.30 to 8.30 | – | CNC(C)(C)CS(=N)(=O)c1cccc(NC(=O)c2c(Oc3ccc(F)nc3C)ncc(C(F)(F)F)c2C)c1 (centres unmarked) [Example 51C]
< 6.70 | – | Cc1nc(F)ccc1Oc1ncc(C(F)(F)F)c(C)c1C(=O)Nc1cccc(S(=N)(=O)CCC(C)(C)O)c1 (centres unmarked) [Example 42C, 2-((6-fluoro-2-methylpyridin-3-yl)oxy)-N-(3-(3-hydroxy-3-methylbutylsulfonimidoyl)phenyl)-4-methyl-5-(trifluoromethyl)nicotinamide]
7.30 to 8.30 | pIC50 (human Nav1.8/b3; [2]): 7.30 to 8.30; pIC50 (human Nav1.8/b3; [3]): 7.30 to 8.30 | Cc1nc(F)ccc1Oc1ncc(C2CCCC2)c(C)c1C(=O)Nc1ccnc([S@](C)(=N)=O)c1 [Example 86C]
< 6.70 | – | Cc1nc(F)ccc1Oc1cc(C(F)(F)F)ccc1C(=O)Nc1ccc(F)c([S@@](C)(=N)=O)c1 [Example 29A]
7.30 to 8.30 | – | COc1cc(C#N)ccc1Oc1ncc(C(F)(F)F)c(C)c1C(=O)Nc1cccc([S@@](=N)(=O)CCCO)c1 [Example 58C]
< 6.70 | – | Cc1nc(F)ccc1Oc1ncc(C(F)(F)F)c(C)c1C(=O)Nc1cc(S(=N)(=O)CCCO)ccn1 (centres unmarked) [Example 49C]
– | pIC50 (human Nav1.8/β1; [1]): < 6.70 | Cc1cc(F)ncc1Oc1cc(C(F)(F)F)c(Cl)cc1C(=O)Nc1ccnc([S@@](C)(=N)=O)c1 [Example 19A]
< 6.70 | – | Cc1nc(F)ccc1Oc1ncc(C(F)(F)F)c(C)c1C(=O)N[C@H]1C[C@H](C(N)=O)C1 [Example 84C]
7.30 to 8.30 | – | COc1cc(C#N)ccc1Oc1ncc(C(F)(F)F)c(C)c1C(=O)Nc1cccc([S@](=N)(=O)CCCO)c1 [Example 57C]
6.70 to 7.00 | – | Cc1nc(F)ccc1Oc1ncc(C(F)(F)F)c(C)c1C(=O)Nc1cccc([S@@]2(=O)=NCCC2)c1 [Example 80C]
7.30 to 8.30 | pIC50 (human Nav1.8/b3; [2]): 7.30 to 8.30; pIC50 (human Nav1.8/b3; [3]): 7.30 to 8.30 | Cc1nc(F)ccc1Oc1ncc(C2CCCC2)c(C)c1C(=O)Nc1cccc([S@](C)(=N)=O)c1 [Example 87C]
< 6.70 | – | COc1cc(C#N)ccc1Oc1cc(C(F)(F)F)c(Cl)cc1C(=O)Nc1cccc([S@](C)(=N)=O)c1 [Example 27A]
7.00 to 7.30 | – | Cc1cc(F)ccc1Oc1ncc(C(F)(F)F)c(C)c1C(=O)Nc1cccc(S(=N)(=O)CCCO)c1 (centres unmarked) [Example 54C]
7.30 to 8.30 | – | Cc1nc(F)ccc1Oc1ncc(C(F)(F)F)c(C)c1C(=O)Nc1cccc([S@](=N)(=O)CCCN(C)C)c1 [Example 73C]
7.30 to 8.30 | pIC50 (human Nav1.8/b3; [2]): > 8.30; pIC50 (human Nav1.8/b3; [3]): > 8.30 | Cc1nc(F)ccc1Oc1ncc(C(F)(F)F)c(C)c1C(=O)Nc1ccc(F)c(S(C)(=O)=NCCN)c1 (centres unmarked) [Example 88C]
< 6.70 | – | Cc1nc(F)ccc1Oc1ncc(C(F)(F)F)c(C)c1C(=O)Nc1cncc([S@@](C)(=N)=O)c1 [Example 62C]
< 6.70 | – | Cc1nc(F)ccc1Oc1ncc(C(F)(F)F)c(C)c1C(=O)N(C)c1cccc([S@@](C)(=N)=O)c1 [Example 47C, (S)-2-((6-fluoro-2-methylpyridin-3-yl)oxy)-N,4-dimethyl-N-(3-(S-methylsulfonimidoyl)phenyl)-5-(trifluoromethyl)nicotinamide]
– | pIC50 (human Nav1.8/β1; [1]): > 8.30 | COc1cc(Br)ccc1Oc1cc(C(F)(F)F)c(Cl)cc1C(=O)Nc1ccnc([S@](C)(=N)=O)c1 [Example 11A, (R)-2-(4-bromo-2-methoxyphenoxy)-5-chloro-N-(2-(S-methylsulfonimidoyl)pyridin-4-yl)-4-(trifluoromethyl)benzamide]
